Where two headings read alike, the source gives them in different places.
Columns and labels:
[1] = cited from earlier work; for Glass transition temperature: at dry conditions; for Tg / Tg′: comparison with inulin
[2] = Modulated DSC, thermal behavior of THC; format: physicochemical; conditions: mDSC thermogram of THC
Method: The thermal behavior of THC was determined by mDSC. A modulation amplitude of ±0.318° C. every 60 sec and a heating rate of 2° C./min was used. During measurement, the sample cell was purged with nitrogen at a flow rate of 35 mL/min. A blob of pure THC was put in the sample cup. After initial cooling the sample was first scanned till 50° C. In this way the blob was able to spread over the entire bottom of the sample pan, thereby increasing the surface available for heat transfer during the second scan. The sample was then cooled until −40° C. and heated to 350° C.

[3] = Solubility of THC in water; conditions: 20 °C, thermodynamic from solid, stirred 3 days
[4] = Stability (no clouding) of water-alcohol solutions of inulin and THC; format: physicochemical; conditions: 0.4% w/v THC
Method: The suitable volume ratio of water/alcohol was investigated by testing the stability of 10% w/v inulin solutions with different ratio's water/alcohol. Inulin was dissolved in different amounts of water (3 to 7 mL). Subsequently different amounts of alcohol were added until a total volume of 10 mL. For THC the same procedure was followed, but now water was added to the alcoholic THC solution. The solution was judged as sufficiently stable if no clouding appeared within the time of processing. For spray drying batches were made which required up to half an hour of spraying. Therefore the solution should be clear for at least that period of time. For freeze drying the solution should be clear until it is frozen. In this case ten minutes is sufficient. Furthermore, it was investigated whether the aqueous inulin solution could be added slowly or should be mixed instantaneously.
The three relevant alcohol's were added to a solution of inulin in water. It was determined for how long the obtained solution stayed clear. After 1 g of inulin was dissolved in 4 mL water, water and/or alcohol was added to a total volume of 10 mL, yielding a 10% w/v solution. The largest concentration of alcohol was thus obtained. THC was dissolved in the alcohol of interest. Subsequently, alcohol and/or water was added to give 0.4% w/v solutions.

[5] = THC-analysis control experiments (degradation of THC in methanol); format: physicochemical
[6] = Dynamic vapour sorption (gravimetric sorption analyser); format: physicochemical; conditions: after exposure to 90% RH
Method: Water sorption isotherm of freeze dried inulin was measured at ambient pressures and 25° C. using a gravimetric sorption analyser (DVS-1000 Water Sorption Instrument, Surface Measurement Systems Limited, London, UK). The uptake of water by inulin was measured from 0% to 90% RH with steps of 10% RH. The initial sample weight was about 10 mg. It was assumed that equilibrium was reached when the change of weight was less than 0.9 μg during a ten minutes period.
The water sorption of THC was determined according to the procedure described above for inulin. The THC was dissolved in methanol before it was put in the DVS-1000 instrument. During initial exposure to a dry nitrogen flow, the methanol was evaporated. As soon as about 90% of the solvent was evaporated, additional THC solution was added to the sample-cup. This procedure was repeated until 15 mg of pure THC was present in the sample cup. After the evaporation of the last methanol, the relative humidity was increased from 0% to 90% in steps of 10%.

With OC[C@@H](O)[C@@H](O[C@H]1O[C@H](CO)[C@@H](O)[C@H](O)[C@H]1O)[C@H](O)[C@@H](O)CO [Maltitol, maltitol] as the molecule, how does the Glass transition temperature [1] read?
Its Glass transition temperature is 44 °C.

With CCCCCc1cc(O)c2c(c1)OC(C)(C)[C@@H]1CCC(C)=C[C@@H]21 [THC, Δ^9-tetrahydrocannabinol] as the molecule, how does the “Onset of endothermic peak (evaporation)” value [2] read?
The value was 200 °C.

What about the Tg [2] of the same molecule?
The Tg was 10 °C.

What about the solubility at 3 days [3] of the same molecule?
Its solubility at 3 days is under 1 µg/mL.

What about the “% v/v water for a stable solution” value ([4]; EtOH (ethanol)) of the same molecule?
Its value is at most 53% maximum % v/v.

And the “% v/v water for a stable solution” value ([4]; TBA (t-butanol))?
Its value is at most 63% maximum % v/v.

What about the “% v/v water for a stable solution” value ([4]; n-PrOH (n-propanol)) of the same molecule?
Its value is at most 62% maximum % v/v.

What about the “Degradation of THC calibration solutions” value ([5]; solutions in methanol, 2 weeks at 4° C.) of the same molecule?
The value was “no significant degradation”.

And the “Degradation of THC by ultrasonic treatment” value ([5]; ten minutes ultrasonic treatment in methanol)?
The value was “no degradation”.

And the “Degradation of THC during extraction” value ([5]; two days of extraction in methanol)?
Its value is “no significant degradation”.

What about the Water absorbed [6] of the same molecule?
Its Water absorbed is 0.3%.

With OC[C@@H](O)[C@@H](O[C@@H]1O[C@H](CO)[C@H](O)[C@H](O)[C@H]1O)[C@H](O)[C@@H](O)CO [lactitol] as the molecule, how does the Glass transition temperature [1] read?
Its Glass transition temperature is 33 °C.

Which results are given for OC[C@H]1O[C@@](CO)(O[C@H]2O[C@H](CO)[C@@H](O)[C@H](O)[C@H]2O)[C@@H](O)[C@@H]1O [sucrose]?
Tg [1]: 76 °C; Tg′ [1]: −39 °C

Which results are given for OC[C@H]1O[C@H](O[C@H]2O[C@H](CO)[C@@H](O)[C@H](O)[C@H]2O)[C@H](O)[C@@H](O)[C@@H]1O [trehalose]?
Tg [1]: 120 °C; Tg′ [1]: −36 °C

Source: patent US20030229027A1, “Stabilized natural cannabinoid formulation” (priority 2002, published 2003)
